For assay [1], the system named is human embryonic kidney (HEK-293) cell lines. In words: MTS cell viability assay, non-cancerous cells. It counts as cell-based. The note with it: for IC50: average of three independent tests in triplicate; for inhibition at 25 µM: HEK293, conjugates at 25 μM, 72 h. An excerpt: (§1) The compounds were further screened for their in vitro cytotoxicity against non-cancerous normal cell lines, viz., human embryonic kidney (HEK-293) and normal pig kidney (LLCPK) cell lines. These cell lines were selected to determine whether the compounds had selectivity against cancerous cells in contrast to non-cancerous cells. The data obtained is shown in Figure 3a–b (cf. Supplementary Materials for the data obtained for intermediates and starting materials Figure S28.7–S28.8, page no. 77–78).
(§2) Cell viability assays were performed using the MTS protocol. The in vitro cytotoxicity of the conjugates was evaluated using six human cancer cell lines, one human normal kidney cell line, and one mammalian normal kidney cell line, which included human leukemia carcinoma cell lines (CCRF-CEM), human ovarian adenocarcinoma cell lines (SKOV-3), human breast tumor cell lines (MDA-MB-231), human prostate cancer cell lines (PC-3), androgen-independent human prostate cancer cell lines (DU-145), human renal carcinoma (iSLK), human embryonic kidney cell lines (HEK-293), and normal mammalian kidney cell line (LLCPK) to determine the toxicity of the synthesized conjugates. CCRF-CEM cells were seeded at 50,000 cells in 0.1 mL per well in 96-well plates, and in the case of SKOV-3, MDA-MB-231, PC-3, DU-145, HEK-293, and LLCPK cell lines, the cells were seeded at 5000 cells in 0.1 mL per well in 96-well plates. The CCRF-CEM cells were seeded in RPMI-1640 media containing 2mM L-glutamine, 1.5 g/L sodium bicarbonate, supplemented with fetal bovine serum (FBS) 10% media, SKOV-3, MDA-MB-231, and LLCPK cells were seeded in MEME media with Earle’s salts and sodium bicarbonate, without L-glutamine, supplemented with fetal bovine serum (FBS) 10%, PC-3 cells were seeded in DMEM:F-12 containing 1:1 mixture with L-glutamine with HEPES, supplemented with fetal bovine serum (FBS) 10%, and DU-145 and HEK-293 cells were seeded in DMEM containing 4500 mg/L glucose, L-glutamine, and sodium bicarbonate, without sodium pyruvate, supplemented with FBS (10%), 24 h prior to the experiment. The compounds at a final concentration of 25 µM (higher concentration stock solution prepared in DMSO) were added to each well in triplicate and incubated for 24 and 72 h at 37 °C in a humidified atmosphere (95% air and 5% CO2). The cell viability was then determined by measuring the absorbance of the formazan product at 490 nm using a microplate reader using a SpectraMax M2 microplate spectrophotometer, Molecular Devices, San Jose, CA, USA. The percentage of cell survival was calculated as [(OD value of cells treated with the test mixture of compounds) − (OD value of culture medium)]/[(OD value of control cells) − (OD value of culture medium)] × 100%. IC50 values of compounds were calculated using non-linear regression analysis in GraphPad Prism (Boston, MA, USA).
A general note: Tetrazolium assays rely on reduction of a dye to a coloured formazan, in cell work by metabolically active cells.

For assay [2], the system named is normal pig kidney (LLCPK) cell lines. In words: MTS cell viability assay, non-cancerous cells. To be noted: Sus scrofa, 72 h. It counts as cell-based.
Excerpt: as §1, §2

In assay [3] the test system is panel of cancer cell lines (CCRF-CEM, SKOV-3, MDA-MB-231, PC-3, DU-145, iSLK). In words: MTS cell viability assay, summary over the cancer cell line panel. It counts as cell-based. The note with it: Homo sapiens; range over CCRF-CEM, MDA-MB-231, PC3, DU-145; read-out: IC50 against all the cancer cell lines (range). How it is done: (§3) All the 14 hybrid compounds synthesized via Scheme 1, along with the intermediates and starting compounds, were tested in vitro for their cytotoxicity against a panel of 6 human cancer cell lines. This panel involved human leukemia carcinoma (CCRF-CEM), human ovarian adenocarcinoma (SKOV-3), human breast tumor (MDA-MB-231), human prostate cancer (PC-3), androgen-independent human prostate cancer (DU-145), and human renal carcinoma (iSLK) cell lines. The compounds were tested at a concentration of 25 μM for incubation periods of 24 and 72 h. Standard anticancer drug doxorubicin at a concentration of 5 μM and DMSO were used as controls in all the cell assays. The antiproliferative profile of benzopyran-4-one-isoxazole conjugates is shown in Figure 2 (cf. Supplementary Materials for the data obtained for intermediates and starting materials Figure S28.1–S28.6, page no. 71–76).
as §2

Assay [4] has as its system human breast tumor (MDA-MB-231) cell lines. In words: MTS cell viability assay. It counts as cell-based. To be noted: for IC50: average of three independent tests in triplicate; for inhibition at 25 µM: conjugates at 25 μM. How it is done:
as §3, §2

Assay [5] concerns androgen-independent human prostate cancer (DU-145) cell lines. In words: MTS cell viability assay. In kind it is cell-based. The note with it: for IC50: average of three independent tests in triplicate; for inhibition at 25 µM: conjugates at 25 μM. How it is done:
as §3, §2

In assay [6] the test system is human ovarian adenocarcinoma (SKOV-3) cell lines. In words: MTS cell viability assay. It counts as cell-based. To be noted: 72 h, read-out: Inhibition of Cancer Cell Lines SKOV-3; for inhibition at 25 µM: SK-OV-3, conjugates at 25 μM. The method, then:
as §3, §2

The test system of assay [7] is human prostate cancer (PC-3) cell lines. In words: MTS cell viability assay. In kind it is cell-based. The note with it: for IC50: PC3, average of three independent tests in triplicate; for inhibition at 25 µM: conjugates at 25 μM. How it is done:
as §3, §2

Assay [8] has as its system human renal carcinoma (iSLK) cell lines. In words: MTS cell viability assay. The note with it: 72 h; for inhibition at 25 µM: Homo sapiens, conjugates at 25 μM, read-out: Inhibition of Cancer Cell Lines iSLK. In kind it is cell-based. How it is done: as §3, §2
Assay [9] concerns human leukemia carcinoma (CCRF-CEM) cell lines. In words: MTS cell viability assay. In kind it is cell-based. The note with it: for inhibition at 25 µM: conjugates at 25 μM; for IC50: average of three independent tests in triplicate. The method, then: as §3, §2
The target in assay [10] is phosphatidylinositol 3-kinase (PI3K). Details: method as in PMID 8106507. The note with it: cellular; cited from earlier work.
In the next assay the test system is MDA-MB-231 cells. In words: Annexin V-FITC/PI apoptosis assay by flow cytometry. In kind it is cell-based, human. To be noted: MDA-MB-231, 5 μM, 72 h. The method, then: In accordance with the MTS assay, compound 5a had promising antiproliferative action. Therefore, we attempted to study the mechanism triggering cell death. […] MDA-MB-231 cells were treated with 5 μM of compound 5a and Dox (5 μM) as a positive control and incubated for 72 h, then double-stained carefully by membrane-linked protein Annexin-V fluorescein isothiocyanate (FITC) and propidium iodide (PI) for flow cytometry analysis. Normally, in the early stages of apoptosis, phosphatidylserine flips from the inner cell membrane to the surface of the cell membrane. […] PI is a nucleic acid dye that can only cross the membrane of advanced apoptosis and necrotic cells and redden the nucleus. Consequently, when the treated cells are double stained by the two fluorescent dyes, early and late apoptosis and necrotic cells can be clearly distinguished. […] These findings illustrated that compound 5a mainly leads to the early apoptosis of MDA-MB-231 cells.
The assay was detected using a commercially available kit (FITC Annexin V Apoptosis Detection Kit II, BD Biosciences, San Jose, CA, USA) per the manufacturer’s instructions. Briefly, MDA-MB-231 cells were seeded in 6-well plates at a concentration of 1 × 10^6 cells/well for 24 h; after that, cells were treated with 5a (5 µM) for 72 h. Dox (5 µM) was used as a positive control. After the treatment period, cells were washed with cold phosphate-buffered saline (PBS) twice. The cells were collected after trypsin treatment and centrifugated to get a pellet, and a binding buffer (1X) was used to resuspend the cells. Annexin V (5 μL) and propidium iodide (PI) (5 μL) were mixed with 100 μL of the suspended cells (1 × 10^6 cells/mL), followed by 15 min incubation at room temperature in the dark. The mixture was diluted by adding 400 μL of 1× binding buffer, and the cells were analyzed using flow cytometry, FACS Verse (BD Biosciences, USA). The experiment was repeated three times independently.
(In general: Flow cytometry measures light scatter and fluorescence of single cells or particles in a stream.)

Assay [11] deals with human embryonic kidney (HEK-293) cell lines. In words: MTS cell viability assay, non-cancerous cells. In kind it is cell-based. To be noted: HEK293, Dox at 5 μM, 72 h.
Setting [12] is: Homo sapiens, HEK293, normal HEK-293 cells.
The mark [13] stands for this setting: 72 h, read-out: Inhibition of Cancer Cell Lines MDA-MB-231.
Where [14] appears, read: Homo sapiens, CCRF-CEM, 72 h, read-out: Inhibition of Cancer Cell Lines CCRF-CEM.

With `COc1ccc2c(=O)c(COC(=O)c3c(C)noc3C)coc2c1` [Compound 5d, (7-Methoxy-4-oxo-4H-1-benzopyran-3-yl)methyl 3,5-dimethylisoxazole-4-carboxylate], the IC50 (usually the concentration that gives 50% inhibition) in assay [1] (setting [12]) was 192 µM; in assay [1] (normal HEK-293 cells), 102 µM; in assay [3] it was 5.2 to 16.1 µM; in assay [4], 5.26 µM; in assay [5], 14.6 µM; in assay [7], 12.7 µM. In assay [9] (Homo sapiens, CCRF-CEM), inhibition was half-maximal at 16.2 µM (IC50). The inhibition (in general, how much of the control response was suppressed) at 25 µM is 40% in assay [1] (Homo sapiens); 18% in assay [2] (conjugates at 25 μM); 76% in assay [4] (setting [13]); 79% in [5] (72 h); 48% in assay [6]; 75% in [7] (72 h). For the same molecule, the inhibition at 25 µM in assay [8] stood at 42%; in assay [9] (setting [14]) it was 82%.

Turning to `COc1ccc2occ(COC(=O)c3c(C)noc3C)c(=O)c2c1` [Compound 5c, (6-Methoxy-4-oxo-4H-1-benzopyran-3-yl)methyl 3,5-dimethylisoxazole-4-carboxylate], the IC50 in assay [1] (setting [12]) is 222 µM; in assay [3], 3.3 to 12.9 µM; in [4], 11 µM; in assay [5], 12.2 µM; in assay [7], 12.9 µM; in [9] (Homo sapiens, CCRF-CEM), 3.31 µM. The inhibition at 25 µM in assay [1] (Homo sapiens) stood at 38%; in assay [4] (setting [13]), 70%; in assay [5] (72 h) it was 81%; in assay [6], 45%; in assay [7] (72 h) it was 74%; in [8] it was 31%. In assay [9] (setting [14]), the inhibition at 25 µM was determined as 83%. Further, in assay [9] (compared to 5a, 5b, and 5d, from IC50), the “fold potency for CCRF-CEM cell lines” value was 3–12 fold.

With `O=c1cc(N2CCOCC2)oc2c(-c3ccccc3)cccc12` [LY294002, 2-(4-Morpholinyl)-8-Phenyl-4H-1-Benzopyran-4-One], the concentration for half-maximal inhibition (IC50) in assay [10] was around 1.4 µM.

In the case of `COc1cccc2occ(COC(=O)c3c(C)noc3C)c(=O)c12` [Compound 5b, (5-Methoxy-4-oxo-4H-1-benzopyran-3-yl)methyl 3,5-dimethylisoxazole-4-carboxylate], the IC50 is 102 µM in [1] (setting [12]); 192 µM in [1] (normal HEK-293 cells); 14.8 to 51.1 µM in assay [3]; 22.2 µM in assay [4]; 51.1 µM in [5]; 14.8 µM in assay [7]. The molecule also yielded an IC50 in assay [9] (Homo sapiens, CCRF-CEM) of 36.5 µM. Besides, the inhibition at 25 µM in assay [1] (Homo sapiens) turned out to be 34%; in assay [4] (setting [13]), 60%; in assay [5] (72 h), 50%; in assay [6], 42%; in [7] (72 h), 75%; in assay [8], 23%. The inhibition at 25 µM in [9] (setting [14]) stood at 83%.

Regarding `COc1cccc2c1C(=O)c1c(O)c3c(c(O)c1C2=O)C[C@@](O)(C(=O)CO)C[C@@H]3O[C@H]1C[C@H](N)[C@H](O)[C@H](C)O1` [doxorubicin, reference compound], the inhibition at 5 µM in [2] (Dox at 5 μM) turned out to be 74%; in [4] (Dox at 5 μM, 72 h, read-out: Inhibition of Cancer Cell Lines MDA-MB-231), 73%; in assay [5] (Dox at 5 μM, 72 h), 57%; in assay [6] (SK-OV-3, Dox at 5 μM), 62%; in assay [7] (Dox at 5 μM, 72 h), 54%; in [9] (Homo sapiens, CCRF-CEM, Dox at 5 μM, 72 h, read-out: Inhibition of Cancer Cell Lines CCRF-CEM), 82%. In addition, in [11], the inhibition at 5 µM was found to be 43%. The “Early Apoptosis” value in the assay with MDA-MB-231 cells is listed as 61.15%. Further, in the assay on MDA-MB-231 cells, the “Late Apoptosis” value is recorded as 28.29%. Besides, in assay [8] (Dox at 5 μM), the “Inhibition of Cancer Cell Lines iSLK” value is “NIL”.

These data come from publication PMC10224329, “Design, Synthesis, and Antiproliferative Activity of Benzopyran-4-One-Isoxazole Hybrid Compounds” (Molecules, 2023).
